# From US10221139B2, “Inhibitors of histone demethylases” (Gilead Sciences, Inc., priority 2012, dated 2019)
# What was measured:
# Type in all cases: cell-based
# Details in all cases: 20 hours
# GASC1 (KDM4C) = molecular target: T1, GASC1 (KDM4C) (Homo sapiens, UniProt Q9H3R0); test: Immunofluorescence assay in U2OS cells transfected with pCMVHA JMJD2C (H3K9me3 mark)
# T1 construct: Full length; host or cells: U2OS
# T1 sequence (Q9H3R0 1-1056): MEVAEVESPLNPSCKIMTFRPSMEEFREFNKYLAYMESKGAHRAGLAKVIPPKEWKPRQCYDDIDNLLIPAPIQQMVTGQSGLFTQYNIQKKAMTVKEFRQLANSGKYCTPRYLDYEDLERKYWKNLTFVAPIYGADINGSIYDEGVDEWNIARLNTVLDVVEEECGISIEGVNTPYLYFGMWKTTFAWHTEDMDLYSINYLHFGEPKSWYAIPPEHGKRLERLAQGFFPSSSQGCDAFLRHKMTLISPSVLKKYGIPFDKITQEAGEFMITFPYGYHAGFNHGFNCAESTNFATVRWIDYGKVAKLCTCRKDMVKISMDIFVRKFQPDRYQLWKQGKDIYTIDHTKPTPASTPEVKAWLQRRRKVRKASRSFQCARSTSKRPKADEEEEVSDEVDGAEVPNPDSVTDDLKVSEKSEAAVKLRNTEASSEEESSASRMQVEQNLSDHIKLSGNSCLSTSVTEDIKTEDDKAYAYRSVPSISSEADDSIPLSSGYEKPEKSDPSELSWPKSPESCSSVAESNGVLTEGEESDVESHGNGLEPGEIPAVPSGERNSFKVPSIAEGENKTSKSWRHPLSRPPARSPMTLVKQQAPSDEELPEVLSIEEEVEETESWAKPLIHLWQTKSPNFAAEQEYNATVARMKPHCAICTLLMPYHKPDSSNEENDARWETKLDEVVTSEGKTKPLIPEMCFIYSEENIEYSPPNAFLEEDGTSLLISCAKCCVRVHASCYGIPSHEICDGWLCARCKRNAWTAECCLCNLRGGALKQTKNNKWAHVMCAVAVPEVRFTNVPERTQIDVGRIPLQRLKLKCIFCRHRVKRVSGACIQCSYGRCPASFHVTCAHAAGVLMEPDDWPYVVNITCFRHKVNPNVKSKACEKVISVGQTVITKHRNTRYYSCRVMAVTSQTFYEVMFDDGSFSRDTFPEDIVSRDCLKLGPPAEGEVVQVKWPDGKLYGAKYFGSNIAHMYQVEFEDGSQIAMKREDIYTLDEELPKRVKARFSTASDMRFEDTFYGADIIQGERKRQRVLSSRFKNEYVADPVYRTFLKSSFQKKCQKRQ
# Procedure, shortened: (§1)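 U2OS cells transiently expressing HA-tagged demethylase, exposed to compound 6 h post-transfection for 20 h in DMEM/5% FBS. Cells fixed, then immunostained for HA and the histone methyl mark and imaged by high-content analysis. IC50 from mean mark staining in HA-positive transfected cells.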
# JMJD2A (KDM4A) = molecular target: T2, JMJD2A (KDM4A) (Homo sapiens, UniProt O75164); test: Immunofluorescence assay in U2OS cells transfected with pCMVHA JMJD2A (H3K9me3 mark)
# T2 construct: Full length; host or cells: U2OS
# T2 sequence (O75164 1-1064): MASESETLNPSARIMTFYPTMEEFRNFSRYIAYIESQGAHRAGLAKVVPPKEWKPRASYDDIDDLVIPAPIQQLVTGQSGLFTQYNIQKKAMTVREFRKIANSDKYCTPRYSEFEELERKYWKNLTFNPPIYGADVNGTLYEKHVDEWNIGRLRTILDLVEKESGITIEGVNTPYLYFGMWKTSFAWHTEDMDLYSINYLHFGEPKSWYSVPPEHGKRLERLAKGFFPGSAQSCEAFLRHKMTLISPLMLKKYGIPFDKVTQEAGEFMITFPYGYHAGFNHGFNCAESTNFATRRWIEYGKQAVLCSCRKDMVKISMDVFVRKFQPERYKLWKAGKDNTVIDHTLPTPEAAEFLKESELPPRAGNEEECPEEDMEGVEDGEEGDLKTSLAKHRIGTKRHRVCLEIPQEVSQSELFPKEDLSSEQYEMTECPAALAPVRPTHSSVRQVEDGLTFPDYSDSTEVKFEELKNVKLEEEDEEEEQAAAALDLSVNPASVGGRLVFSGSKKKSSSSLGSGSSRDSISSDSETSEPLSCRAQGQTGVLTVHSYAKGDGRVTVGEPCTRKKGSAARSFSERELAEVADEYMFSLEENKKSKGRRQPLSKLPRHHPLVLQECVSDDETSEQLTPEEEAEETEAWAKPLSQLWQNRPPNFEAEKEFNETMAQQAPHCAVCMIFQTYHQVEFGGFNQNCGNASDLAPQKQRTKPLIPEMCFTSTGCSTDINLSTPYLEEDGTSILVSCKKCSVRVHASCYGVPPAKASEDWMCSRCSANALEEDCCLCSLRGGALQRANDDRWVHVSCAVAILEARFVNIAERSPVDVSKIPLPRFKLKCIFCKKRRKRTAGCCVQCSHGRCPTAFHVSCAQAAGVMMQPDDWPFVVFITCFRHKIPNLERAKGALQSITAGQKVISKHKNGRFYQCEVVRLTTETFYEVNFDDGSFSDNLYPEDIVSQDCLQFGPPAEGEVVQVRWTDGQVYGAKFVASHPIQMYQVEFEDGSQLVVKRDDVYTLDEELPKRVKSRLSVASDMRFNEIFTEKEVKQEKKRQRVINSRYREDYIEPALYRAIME
# Protocol: U2OS cells were seeded 24 hours before transfection. Transfection was performed with Fugene HD transfection reagent as recommended by the manufacturer. 6 hours after transfection, the cells were harvested and seeded into multi well plates into media containing compound. The media used was DMEM containing 5% FBS and pen/strep. 20 hours after incubation of cells with compounds, the cells were washed once in PBS, harvested by fixation with formaldehyde 4% aqueous solution, and washed 2 times in PBS. Subsequently, the cells were permeabilized in PBS with 0.2% Triton X-100 for 10 min at room temperature. Blocking was performed in PBS with 0.2% Triton X-100 and 5% FBS for 45 min at room temperature. The cells were incubated with primary antibodies diluted 1 μg/ml in blocking solution over night at 4° C. The primary antibodies used in the assays were HA.11 (Covance, MMS-101P) and the antibody detecting the mark specified in the Table 6 below. After incubation with primary antibodies, the cells were washed 3 times with PBS, incubated with secondary antibodies diluted 1:1000 (Alexa fluor 594 goat anti rabbit IgG, Invitrogen, A11012; Alexa flour 488 donkey anti mouse IgG, Invitrogen, A21202) and Hoechst, 20 μg/ml (Sigma, 33342) in blocking solution, and washed again 3 times with PBS. Finally, PBS was added and high throughput imaging and analysis were performed by an IN Cell Analyzer 1000 (GE Healthcare). The robot software analyzed individual cells and divided these into HA^+ (transfected cells) and HA^− (non-transfected cells). The IC50 values in Table 7 below were based on an average measure of the staining of the mark specified in the Table 6 below in the transfected cells.
# PLU1 (KDM5B) = molecular target: T3, PLU1 (KDM5B) (Homo sapiens, UniProt Q9UGL1); test: Immunofluorescence assay in U2OS cells transfected with pCMVHA PLU1 (H3K4me2 mark)
# T3 construct: (1-752); host or cells: U2OS
# T3 sequence (Q9UGL1 1-752): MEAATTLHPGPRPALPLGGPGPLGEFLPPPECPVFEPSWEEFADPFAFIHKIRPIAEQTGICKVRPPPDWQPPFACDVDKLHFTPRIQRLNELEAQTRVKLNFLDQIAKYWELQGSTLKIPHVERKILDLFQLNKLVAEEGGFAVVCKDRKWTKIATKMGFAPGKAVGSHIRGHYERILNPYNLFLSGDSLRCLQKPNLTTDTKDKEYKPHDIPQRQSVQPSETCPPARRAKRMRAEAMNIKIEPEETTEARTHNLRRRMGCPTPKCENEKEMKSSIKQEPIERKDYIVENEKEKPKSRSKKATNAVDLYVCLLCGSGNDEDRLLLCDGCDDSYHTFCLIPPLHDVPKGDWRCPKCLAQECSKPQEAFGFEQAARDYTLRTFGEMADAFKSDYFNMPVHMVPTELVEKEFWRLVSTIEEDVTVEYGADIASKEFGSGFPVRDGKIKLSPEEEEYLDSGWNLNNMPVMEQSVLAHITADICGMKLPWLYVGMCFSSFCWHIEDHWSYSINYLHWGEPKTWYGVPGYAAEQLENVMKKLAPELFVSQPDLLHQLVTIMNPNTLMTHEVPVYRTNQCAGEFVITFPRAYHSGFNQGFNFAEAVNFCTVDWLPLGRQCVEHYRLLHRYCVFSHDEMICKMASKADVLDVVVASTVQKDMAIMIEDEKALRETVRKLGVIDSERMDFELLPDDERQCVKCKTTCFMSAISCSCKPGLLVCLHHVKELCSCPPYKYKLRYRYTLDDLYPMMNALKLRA
# Procedure, shortened: as §1
smiles,measurement,setting,value
"CCN(CCN(C)C)C(=O)CNCc1cc(C(=O)O)ccn1 [drawing 328, 2-{[({[2-(dimethylamino)ethyl](ethyl)carbamoyl}methyl)amino]methyl}pyridine-4-carboxylic acid]",IC50,GASC1 (KDM4C),> 50 µM
same,IC50,JMJD2A (KDM4A),1 to 50 µM
same,IC50,PLU1 (KDM5B),1 to 50 µM
